Measured values taken from patent US9617256B2 (priority 2007, dated 2017).
In brackets after ≈: the same amount, converted by molar mass. Read-outs that look alike come from different tables or passages of the source.

How the values were obtained:
[1] = system: APAE006 in the presence of 8 micrograms per milliliter of polymyxin B nonapeptide; type: cell-based, P. aeruginosa
In short: (§1)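 Incubation: 35° C., ambient air, 18-24 h. Medium: cation-adjusted Mueller-Hinton broth with 2-fold serial dilutions of drug. Inoculum: 3×10^5–7×10^5 CFU/mL final, per CLSI microdilution method.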

[2] = system: AABA1060 (clinical isolate of Acinetobacter baumannii); test: MIC broth microdilution, AABA1060; type: cell-based; conditions: for MIC: Acinetobacter baumannii, read-out: MIC AABA1060
In short: as §1

APAE001 (ATCC27853) = test: MIC broth microdilution, APAE001; type: cell-based, P. aeruginosa; conditions: for MIC: Pseudomonas aeruginosa
In short: as §1

AECO001 (ATCC25922) = test: MIC broth microdilution, AECO001; type: cell-based, E. coli; conditions: for MIC: Escherichia coli
In short: as §1

[3] = system: APAE006 (strain of P. aeruginosa in which all efflux pumps are inactivated); test: microbe, parasite or virus in culture; type: cell-based; conditions: for MIC: Pseudomonas aeruginosa
In short: as §1

[4] = system: AECO063 (ATCC25922 bearing an acrAB mutation); test: microbe, parasite or virus in culture; type: cell-based, E. coli; conditions: for MIC: Escherichia coli, ATCC25922, read-out: MIC AECO063
In short: as §1

[5] = system: ASAU001 (laboratory strain of S. aureus, ATCC29213); test: MIC broth microdilution, ASAU001; type: cell-based; conditions: for MIC: Staphylococcus aureus, ATCC29213, read-out: MIC ASAU001
In short: as §1

AECO001 HSA AGP = test: MIC broth microdilution, AECO001 HSA AGP; type: cell-based, E. coli; conditions: for MIC: Escherichia coli
Experimental: Bacterial isolates were cultivated from −70° C. frozen stocks by overnight passages at 35° C. in ambient air on Mueller-Hinton agar (Beckton Dickinson, Franklin Lakes, N.J.). Clinical isolates tested were obtained from various geographically diverse hospitals in the US and abroad (Focus Diagnostics, Herndon, Va. and JMI, North Liberty, Iowa). Quality control strains were from the American Type Culture Collection (ATCC; Rockville, Md.). Additional primary panel strains were generated using standard molecular biology techniques.
Minimum Inhibitory Concentrations (MICs) were determined by the broth microdilution method in accordance with the Clinical and Laboratory Standards Institute (CLSI) guidelines. In brief, organism suspensions were adjusted to a 0.5 McFarland standard to yield a final inoculum between 3×10^5 and 7×10^5 colony-forming units (CFU)/mL. Drug dilutions and inocula were made in sterile, cation adjusted Mueller-Hinton Broth (Beckton Dickinson). An inoculum volume of 100 μL was added to wells containing 100 μL of broth with 2-fold serial dilutions of drug. All inoculated microdilution trays were incubated in ambient air at 35° C. for 18-24 hours. […] Performance of the assay was monitored by the use of laboratory quality-control strains and levofloxacin, a compound with a defined MIC spectrum, in accordance with CLSI guidelines.
*AECO001 is ATCC25922, AECO063 is ATCC25922 bearing an acrAB mutation, APAE001 is ATCC27853, APAE006 is a strain of P. aeruginosa in which all efflux pumps are inactivated, APAE006+PMBN indicates MICs with the indicated strain in the presence of 8 micrograms per milliliter of polymyxin B nonapeptide, AABA1060 is a clinical isolate of Acinetobacter baumannii, ASAU001 is a laboratory strain of S. aureus (ATCC29213).

[6] = in the presence of 8 micrograms per milliliter of polymyxin B nonapeptide
[7] = ATCC27853, read-out: MIC APAE001, APAE001 is ATCC27853
[8] = ATCC25922, read-out: MIC AECO001
[9] = read-out: MIC APAE006, P. aeruginosa, all efflux pumps inactivated
[10] = APAE006 with 8 micrograms per milliliter polymyxin B nonapeptide
[11] = ATCC27853, read-out: MIC APAE001, APAE001 (ATCC27853)
[12] = ATCC25922, read-out: MIC AECO001 HSA AGP
[13] = read-out: MIC APAE006, APAE006, all efflux pumps inactivated

Row | SMILES | MIC APAE006 + PMBN [1, 6] | MIC [2] | MIC (APAE001 (ATCC27853); [7]) | MIC (AECO001 (ATCC25922); [8]) | MIC [3, 9] | MIC [4] | MIC [5] | MIC (AECO001 HSA AGP) | MIC AABA1060 ([2]; clinical isolate of Acinetobacter baumannii) | MIC APAE001 (APAE001 (ATCC27853); APAE001 is ATCC27853) | MIC AECO001 (AECO001 (ATCC25922); AECO001 is ATCC25922) | MIC APAE006 ([3]; P. aeruginosa, all efflux pumps inactivated) | MIC AECO063 ([4]; ATCC25922 bearing an acrAB mutation) | MIC ASAU001 ([5]; S. aureus ATCC29213) | MIC AECO001 HSA AGP (AECO001 HSA AGP) | MIC APAE006 + PMBN [1, 10] | MIC (APAE001 (ATCC27853); [11]) | MIC (AECO001 (ATCC25922); [12]) | Ratio of MICs on AECO001 [Cpd (A = —CHCH3NH2)/Cpd (A = —C(CH3)2NH2)] (AECO001 (ATCC25922); MIC of paired compound with A = —CHCH3NH2 divided by MIC of compound with A = —C(CH3)2NH2, n=2 data, pairs identical except for the A moiety) | MIC [3, 13]
1 | COC1CCN(Cc2ccc(C#Cc3ccc(C(=O)N[C@H](C(=O)NO)[C@@H](C)N)cc3)cc2)CC1 [Example 115-8] | A (MIC's of 2.0 μg/mL or less = A) | 2 to 16 µg/mL (≈ 4.31 to 34.4 µM) | < 2 µg/mL | < 2 µg/mL | < 2 µg/mL | < 2 µg/mL | > 64 µg/mL | 2 to 16 µg/mL (≈ 4.31 to 34.4 µM) | – | – | – | – | – | – | – | – | – | – | – | –
2 | O=C(N[C@H](C(=O)NO)C1CCS(=O)(=O)CC1)c1ccc(C#Cc2ccc(CN3CCOCC3)cc2)cc1 [Example 67-9] | A (MIC's of 2.0 μg/mL or less = A) | > 64 µg/mL | 16 to 64 µg/mL (≈ 30.4 to 122 µM) | 2 to 16 µg/mL (≈ 3.8 to 30.4 µM) | < 2 µg/mL | < 2 µg/mL | > 64 µg/mL | 16 to 64 µg/mL (≈ 30.4 to 122 µM) | – | – | – | – | – | – | – | – | – | – | – | –
3 | C[C@@H](O)[C@H](NC(=O)c1ccc(SCc2ccc(CN3CCOCC3)cc2)cc1)C(=O)NO [Example 46-4, N-((1S,2R)-2-Hydroxy-1-hydroxycarbamoyl-propyl)-4-(4-morpholin-4-ylmethyl-benzylsulfanyl)-benzamide] | – | > 64 µg/mL | 16 to 64 µg/mL (≈ 34.8 to 139 µM) | 16 to 64 µg/mL (≈ 34.8 to 139 µM) | < 2 µg/mL | 2 to 16 µg/mL (≈ 4.35 to 34.8 µM) | > 64 µg/mL | 16 to 64 µg/mL (≈ 34.8 to 139 µM) | – | – | – | – | – | – | – | – | – | – | – | –
4 | C[C@@H](O)[C@H](NC(=O)c1ccc(Sc2ccc(CN3CCOCC3)cc2)cc1)C(=O)NO [Example 47-5, N-((1S,2R)-2-hydroxy-1-hydroxycarbamoyl-propyl)-4-(4-morpholin-4-ylmethyl-phenylsulfanyl)-benzamide] | – | > 64 µg/mL | > 64 µg/mL | > 64 µg/mL | 16 to 64 µg/mL (≈ 35.9 to 144 µM) | > 64 µg/mL | > 64 µg/mL | > 64 µg/mL | – | – | – | – | – | – | – | – | – | – | – | –
5 | C[C@@H](N)[C@H](NC(=O)c1ccc(CCc2ccc(CN3CCOCC3)cc2)cc1)C(=O)NO [Example 137-1] | – | – | – | – | – | – | – | – | D (MIC's of greater than 64.0 μg/mL = D) | B (MIC's of greater than 2.0 μg/mL to 16.0 μg/mL = B) | A (MIC's of 2.0 μg/mL or less = A) | A (MIC's of 2.0 μg/mL or less = A) | A (MIC's of 2.0 μg/mL or less = A) | D (MIC's of greater than 64.0 μg/mL = D) | B (MIC's of greater than 2.0 μg/mL to 16.0 μg/mL = B) | – | – | – | – | –
6 | CC(O)[C@H](NS(=O)(=O)c1ccc(C#Cc2ccc(CN3CCOCC3)cc2)cc1)C(=O)NO (stereo partly drawn) [Example 62-7] | – | 16 to 64 µg/mL (≈ 33.8 to 135 µM) | > 64 µg/mL | 16 to 64 µg/mL (≈ 33.8 to 135 µM) | 2 to 16 µg/mL (≈ 4.22 to 33.8 µM) | 2 to 16 µg/mL (≈ 4.22 to 33.8 µM) | > 64 µg/mL | 16 to 64 µg/mL (≈ 33.8 to 135 µM) | – | – | – | – | – | – | – | – | – | – | – | –
7 | CC(C)(N)[C@H](NC(=O)c1ccc(C#Cc2ccc(CNC3CC3)cc2)cc1)C(=O)NO [Example 121-1, N—((S)-2-Amino-1-hydroxycarbamoyl-2-methyl-propyl)-4-(4-cyclopropylaminomethyl-phenylethynyl)-benzamide] | – | 2 to 16 µg/mL (≈ 4.76 to 38 µM) | – | < 2 µg/mL | – | < 2 µg/mL | 16 to 64 µg/mL (≈ 38 to 152 µM) | – | – | – | – | – | – | – | – | A (MIC's of 2.0 μg/mL or less = A) | < 2 µg/mL | < 2 µg/mL | 4.0 | < 2 µg/mL
8 | O=C(CNC1CC1)NC[C@H](NC(=O)c1ccc(C#Cc2ccccc2)cc1)C(=O)NO [Example 132-1, N—[(S)-2-(2-Cyclopropylamino-acetylamino)-1-hydroxycarbamoyl-ethyl]-4-phenylethynyl-benzamide] | – | 2 to 16 µg/mL (≈ 4.76 to 38.1 µM) | – | < 2 µg/mL | – | < 2 µg/mL | 16 to 64 µg/mL (≈ 38.1 to 152 µM) | – | – | – | – | – | – | – | – | A (MIC's of 2.0 μg/mL or less = A) | 2 to 16 µg/mL (≈ 4.76 to 38.1 µM) | 2 to 16 µg/mL (≈ 4.76 to 38.1 µM) | – | < 2 µg/mL
9 | C[C@@H](N)[C@H](NC(=O)c1ccc(C#CC#CC(C)(C)O)cc1)C(=O)NO [Example 91-30] | – | 16 to 64 µg/mL (≈ 46.6 to 186 µM) | – | 16 to 64 µg/mL (≈ 46.6 to 186 µM) | – | 2 to 16 µg/mL (≈ 5.82 to 46.6 µM) | 16 to 64 µg/mL (≈ 46.6 to 186 µM) | – | – | – | – | – | – | – | – | A (MIC's of 2.0 μg/mL or less = A) | < 2 µg/mL | 16 to 64 µg/mL (≈ 46.6 to 186 µM) | – | < 2 µg/mL
